Reference: PubChem BioAssay (NCI)
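1) Cells in 96-well plates. 2) Compound, 48 h, 5 concentrations. 3) Linear interpolation between surrounding doses. 4) Unreached endpoint = highest concentration. GI50 marks 50% less growth. TGI: total growth inhibition.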

Assays:
Experiment in all cases: inhibition of tumour cell growth, NCI panel, 48 h
CAKI-1 renal = system: CAKI-1 renal
HCT-15 colon = system: HCT-15 colon
UACC-62 melanoma = system: UACC-62 melanoma
BT-549 breast = system: BT-549 breast
KM12 colon = system: KM12 colon
NCI-H226 lung = system: NCI-H226 lung
OVCAR-4 ovarian = system: OVCAR-4 ovarian
A549 NSCLC = system: A549 NSCLC
SK-MEL-28 melanoma = system: SK-MEL-28 melanoma
786-0 renal = system: 786-0 renal
SK-OV-3 ovarian = system: SK-OV-3 ovarian
MDA-MB-435 = system: MDA-MB-435
UO-31 renal = system: UO-31 renal
UACC-257 melanoma = system: UACC-257 melanoma
PC-3 prostate = system: PC-3 prostate
SF-539 CNS = system: SF-539 CNS
SW-620 colon = system: SW-620 colon
SN12C renal = system: SN12C renal
MALME-3M melanoma = system: MALME-3M melanoma
K-562 leukemia = system: K-562 leukemia
U251 CNS = system: U251 CNS
HCC-2998 colon = system: HCC-2998 colon
IGROV1 ovarian = system: IGROV1 ovarian
HS 578T breast = system: HS 578T breast
OVCAR-3 ovarian = system: OVCAR-3 ovarian
SK-MEL-5 melanoma = system: SK-MEL-5 melanoma
NCI/ADR-RES ovarian = system: NCI/ADR-RES ovarian
HOP-62 NSCLC = system: HOP-62 NSCLC
ACHN renal = system: ACHN renal
SF-295 CNS = system: SF-295 CNS
SNB-19 CNS = system: SNB-19 CNS
SNB-75 CNS = system: SNB-75 CNS
SK-MEL-2 melanoma = system: SK-MEL-2 melanoma
TK-10 renal = system: TK-10 renal
SR leukemia = system: SR leukemia
M14 melanoma = system: M14 melanoma
RXF 393 renal = system: RXF 393 renal
OVCAR-5 ovarian = system: OVCAR-5 ovarian
NCI-H460 lung = system: NCI-H460 lung
MDA-MB-231 breast = system: MDA-MB-231 breast
MOLT-4 leukemia = system: MOLT-4 leukemia
NCI-H522 lung = system: NCI-H522 lung
SF-268 CNS = system: SF-268 CNS
T-47D breast = system: T-47D breast
COLO 205 colon = system: COLO 205 colon
NCI-H23 lung = system: NCI-H23 lung
HOP-92 NSCLC = system: HOP-92 NSCLC
DU-145 prostate = system: DU-145 prostate
A498 renal = system: A498 renal
OVCAR-8 ovarian = system: OVCAR-8 ovarian
HT29 colon = system: HT29 colon
MCF7 breast = system: MCF7 breast
HL-60(TB) leukemia = system: HL-60(TB) leukemia
LOX IMVI melanoma = system: LOX IMVI melanoma
RPMI-8226 leukemia = system: RPMI-8226 leukemia
HCT-116 colon = system: HCT-116 colon

Work on `COc1cc(-c2nn(-c3cccc(NC(=O)Nc4cccc(C(F)(F)F)c4)c3)cc2-c2ccncc2)ccc1Cl` yielded a GI50 (CAKI-1 renal) of 952 nM, a TGI (CAKI-1 renal) of 3100 nM and a GI50 (HCT-15 colon) of 957 nM. The TGI (HCT-15 colon) was 10800 nM, the GI50 (UACC-62 melanoma) was 627 nM and the TGI (UACC-62 melanoma) was 1480 nM. For the same compound, the GI50 (BT-549 breast) was 1230 nM, the TGI (BT-549 breast) was 4030 nM and the GI50 (KM12 colon) was 422 nM. The TGI (KM12 colon) was 2020 nM, the GI50 (NCI-H226 lung) was 1210 nM and the TGI (NCI-H226 lung) was 14800 nM. The GI50 (OVCAR-4 ovarian) was 996 nM, the TGI (OVCAR-4 ovarian) was 13800 nM and the GI50 (A549 NSCLC) was 723 nM. It also gave a TGI (A549 NSCLC) of 14500 nM, a GI50 (SK-MEL-28 melanoma) of 1060 nM and a TGI (SK-MEL-28 melanoma) of 3910 nM. The GI50 (786-0 renal) was 1120 nM, the TGI (786-0 renal) was 3170 nM and the GI50 (SK-OV-3 ovarian) was 1700 nM. The TGI (SK-OV-3 ovarian) was 15400 nM, the GI50 (MDA-MB-435) was 794 nM and the TGI (MDA-MB-435) was 1980 nM. For the same compound, the GI50 (UO-31 renal) was 747 nM, the TGI (UO-31 renal) was 3040 nM and the GI50 (UACC-257 melanoma) was 746 nM. The TGI (UACC-257 melanoma) was 2090 nM, the GI50 (PC-3 prostate) was 244 nM and the TGI (PC-3 prostate) was 1550 nM. It also gave a GI50 (SF-539 CNS) of 958 nM, a TGI (SF-539 CNS) of 2560 nM and a GI50 (SW-620 colon) of 767 nM. The TGI (SW-620 colon) was 9430 nM, the GI50 (SN12C renal) was 817 nM and the TGI (SN12C renal) was 10500 nM. It also gave a GI50 (MALME-3M melanoma) of 845 nM, a TGI (MALME-3M melanoma) of 2180 nM and a GI50 (K-562 leukemia) of 386 nM. It also gave a TGI (K-562 leukemia) of 12100 nM, a GI50 (U251 CNS) of 467 nM and a TGI (U251 CNS) of 1230 nM. It also gave a GI50 (HCC-2998 colon) of 1380 nM, a TGI (HCC-2998 colon) of 4710 nM and a GI50 (IGROV1 ovarian) of 920 nM. It also gave a TGI (IGROV1 ovarian) of 3240 nM, a GI50 (HS 578T breast) of 1360 nM and a TGI (HS 578T breast) of 16600 nM. For the same compound, the GI50 (OVCAR-3 ovarian) was 343 nM, the TGI (OVCAR-3 ovarian) was 1590 nM and the GI50 (SK-MEL-5 melanoma) was 622 nM. It also gave a TGI (SK-MEL-5 melanoma) of 1270 nM, a GI50 (NCI/ADR-RES ovarian) of 696 nM and a TGI (NCI/ADR-RES ovarian) of 3580 nM. For the same compound, the GI50 (HOP-62 NSCLC) was 923 nM, the TGI (HOP-62 NSCLC) was 2880 nM and the GI50 (ACHN renal) was 371 nM. The TGI (ACHN renal) was 13600 nM, the GI50 (SF-295 CNS) was 229 nM and the TGI (SF-295 CNS) was 926 nM. The GI50 (SNB-19 CNS) was 999 nM, the TGI (SNB-19 CNS) was 6260 nM and the GI50 (SNB-75 CNS) was 1130 nM. It also gave a TGI (SNB-75 CNS) of 4100 nM, a GI50 (SK-MEL-2 melanoma) of 935 nM and a TGI (SK-MEL-2 melanoma) of 1940 nM. For the same compound, the GI50 (TK-10 renal) was 1060 nM, the TGI (TK-10 renal) was 9260 nM and the GI50 (SR leukemia) was 858 nM. The TGI (SR leukemia) was 2620 nM, the GI50 (M14 melanoma) was 759 nM and the TGI (M14 melanoma) was 2160 nM. It also gave a GI50 (RXF 393 renal) of 798 nM, a TGI (RXF 393 renal) of 1950 nM and a GI50 (OVCAR-5 ovarian) of 1520 nM. It also gave a TGI (OVCAR-5 ovarian) of 8410 nM, a GI50 (NCI-H460 lung) of 478 nM and a TGI (NCI-H460 lung) of 2280 nM. The GI50 (MDA-MB-231 breast) was 813 nM, the TGI (MDA-MB-231 breast) was 2230 nM and the GI50 (MOLT-4 leukemia) was 936 nM. It also gave a TGI (MOLT-4 leukemia) of 3480 nM, a GI50 (NCI-H522 lung) of 451 nM and a TGI (NCI-H522 lung) of 1870 nM. It also gave a GI50 (SF-268 CNS) of 1280 nM, a TGI (SF-268 CNS) of 5010 nM and a GI50 (T-47D breast) of 638 nM. It also gave a TGI (T-47D breast) of 11400 nM, a GI50 (COLO 205 colon) of 588 nM and a TGI (COLO 205 colon) of 1430 nM. For the same compound, the GI50 (NCI-H23 lung) was 769 nM, the TGI (NCI-H23 lung) was 3020 nM and the GI50 (HOP-92 NSCLC) was 251 nM. The TGI (HOP-92 NSCLC) was 921 nM, the GI50 (DU-145 prostate) was 1360 nM and the TGI (DU-145 prostate) was 22800 nM. It also gave a GI50 (A498 renal) of 609 nM, a TGI (A498 renal) of 3030 nM and a GI50 (OVCAR-8 ovarian) of 739 nM. It also gave a TGI (OVCAR-8 ovarian) of 2700 nM, a GI50 (HT29 colon) of 775 nM and a TGI (HT29 colon) of 2090 nM. For the same compound, the GI50 (MCF7 breast) was 609 nM, the TGI (MCF7 breast) was 4700 nM and the GI50 (HL-60(TB) leukemia) was 756 nM. For the same compound, the TGI (HL-60(TB) leukemia) was 10100 nM, the GI50 (LOX IMVI melanoma) was 789 nM and the TGI (LOX IMVI melanoma) was 1650 nM. The GI50 (RPMI-8226 leukemia) was 241 nM, the TGI (RPMI-8226 leukemia) was 1830 nM and the GI50 (HCT-116 colon) was 608 nM. For the same compound, the TGI (HCT-116 colon) was 6090 nM.
